From PMC12592502, “Unraveling the mechanisms behind the enhanced efficacy of β-lactam-based sideromycins” (Communications Biology, 2025)
≈ marks a conversion by molar mass, not a printed value. Read-outs that look alike come from different tables or passages of the source. Marks after values point to notes of the source that are not given here.

Assays:
E. coli ΔentE = assay: MIC, Keio mutant; format: cell-based, Escherichia coli
Experimental: (§1) All bacterial strains (see description and sources Table S1) were stored at −80 °C, and grown on tryptone soya agar (TSA) at 35 °C. The iron-deprived (ID)-MHBCA (cation-adjusted Muller-Hinton Broth, Becton Dickinson, Mississauga, ON, Canada) medium was prepared as reported by refs. [21],[50]. Briefly, MHBCA was treated with 10% Chelex® 50-100 mesh (Sigma) and stirred for 6 h at room temperature. The resin was removed by filtration. Divalent Ca^2+ (CaCl2), Mg^2+ (MgCl2), and Zn^2+(ZnSO4), were then added in the iron-depleted medium at 22, 12, and 1 μg/ml respectively. Finally, the pH was adjusted to 7.3, and the medium was sterilized with a 0.2-μm filter. Regular MHBCA (i.e., not treated with Chelex®) was used to compare the inhibitory activity of conjugates in iron-sufficient conditions.
(§2) Minimal inhibitory concentrations (MICs) were performed using a broth microdilution technique according to the Clinical and Laboratory Standards Institute (CLSI) guidelines. MICs were determined in MHBCA and in ID-MHBCA. To check the impact of β-lactamases, MICs in the presence of a β-lactamase inhibitor were also determined. The inhibitor was homogenized at 2X the final concentration and added to the bacterial inoculum just before distributing cells into the wells containing the drug dilutions. The final concentration of each inhibitor was 4 μg/mL for clavulanic acid (tested against K. pneumoniae) and 200 μg/mL for 3-aminophenylboronic acid (tested against P. aeruginosa and A. baumannii).

E. coli ΔtonB = assay: MIC, Keio mutant; format: cell-based, Escherichia coli
Experimental: as §1, §2

E. coli ΔfepA = assay: MIC, Keio mutant; format: cell-based, Escherichia coli
Experimental: as §1, §2

E. coli ΔfecA = assay: MIC, Keio mutant; format: cell-based, Escherichia coli
Experimental: as §1, §2

E. coli BW25113 = assay: MIC, parental strain of Keio mutants; format: cell-based, Escherichia coli
Experimental: as §1, §2

[1] = Antibiotic stability in medium without bacteria
Source text: This method used ultra-performance liquid chromatography-mass spectrometry (UPLC-MS) to measure the amount of test antibiotics remaining in bacterial culture supernatants over time as a means to measure antibiotic uptake by bacterial cells. The method assumes that all antibiotic molecules in the medium (i.e., those that we measured by UPLC-MS) are not bound to the PBP targets in the periplasm, whereas it is assumed that the bactericidal effect (ΔCFU/mL) is correlated to antibiotic uptake and binding to PBPs. The test strain E. coli MC4100 was cultivated overnight in 10 mL of MHBCA or ID-MHBCA at 37 °C with shaking (200 rpm). The next day, the overnight culture was diluted in fresh preheated medium to obtain an OD600 of ~0.7 in MHBCA or ID-MHBCA. The culture was further diluted 1:2 in MHBCA or ID-MHBCA (growth controls), or in MHBCA or ID-MHBCA containing the freshly prepared test antibiotic (2 × the final concentration) to obtain an initial OD600 of ~0.35 (corresponding to 8.5 log10 CFU/mL) and 200 μM of antibiotic (final concentration). Antibiotics were also added to preheated MHBCA or ID-MHBCA without bacteria to control for the stability of the molecules in the medium over time. The moment bacteria were put in contact with the test antibiotic corresponded to the first time point (0 h). For each time point thereafter, 200 μL of sample from both assay and stability test tubes were retrieved and centrifuged at 4 °C for 5 min at 8000 × g. All supernatants were filtered (0.2 μm) and flash frozen in liquid nitrogen for transport. After melting, 2 μL of the samples were injected in the UPLC-MS before the analysis. In parallel, 20 μL of assay and growth control tubes were serially diluted in 96-well plates. Ten μL of each dilution was spotted on TSA plates and incubated for 24 h at 37 °C for CFU counting.
For analysis, the determined concentration in the supernatant was adjusted for the degradation of the molecules measured in the stability control tests for each time point. The final net antibiotic concentration in the medium was calculated at each time point by adding the concentration caused by degradation to the concentration of the test antibiotic measured in the assay tubes containing bacteria. […] A second control was added for the β-lactam LOR and CEF to verify the impact of metabolic waste on the stability of the molecules. The supernatant from the 4-h growth control without antibiotic was collected by filtration 0.2 µm. LOR and CEF were then added to the filtrated supernatant at 200 µM, and degradation was measured after 3 h.

[2] = Escherichia coli, BW25113, BW25113, ID-MHBCA
[3] = Escherichia coli, BW25113, BW25113, MHBCA

Question: What does the source list for `N[C@@H](C(=O)N[C@@H]1C(=O)N2C(C(=O)O)=C(Cl)CS[C@H]12)c1ccccc1` [CEF, cefaclor, reference compound]?
Answer: MIC (E. coli ΔentE; Escherichia coli, ID-MHBCA): 6.3 µM (≈ 2.32 µg/mL); MIC (E. coli ΔentE; Escherichia coli, MHBCA): 6.3 µM (≈ 2.32 µg/mL); MIC (E. coli ΔtonB; Escherichia coli): 13 µM (≈ 4.78 µg/mL); MIC (E. coli ΔfepA; Escherichia coli, ID-MHBCA): 25 µM (≈ 9.2 µg/mL); MIC (E. coli ΔfepA; Escherichia coli, MHBCA): 13 µM (≈ 4.78 µg/mL); MIC (E. coli ΔfecA; Escherichia coli, ID-MHBCA): 6.3 µM (≈ 2.32 µg/mL); MIC (E. coli ΔfecA; Escherichia coli, MHBCA): 6.3 µM (≈ 2.32 µg/mL); MIC (E. coli BW25113; [2]): 6.3 µM (≈ 2.32 µg/mL); MIC (E. coli BW25113; [3]): 6.3 µM (≈ 2.32 µg/mL); percentage of antibiotic degradation ([1]; 2 h, 200 μM): 14%

Question: Which results are given for `O=C(CN(CCCCNC(=O)c1cccc(O)c1O)C(=O)c1cccc(O)c1O)NC(C(=O)NC1C(=O)N2C(C(=O)O)=C(Cl)CCC12)c1ccccc1` (stereo not drawn) [BLOR, bis-catechol (azotochelin)-loracarbef]?
Answer: MIC (E. coli ΔentE; Escherichia coli, ID-MHBCA): 0.012 µM (≈ 0.009 µg/mL); MIC (E. coli ΔentE; Escherichia coli, MHBCA): 0.05 µM (≈ 0.0375 µg/mL); MIC (E. coli ΔtonB; Escherichia coli): 50 µM (≈ 37.5 µg/mL); MIC (E. coli ΔfepA; Escherichia coli, ID-MHBCA): 0.012 µM (≈ 0.009 µg/mL); MIC (E. coli ΔfepA; Escherichia coli, MHBCA): 0.1 to 0.4 µM (≈ 0.075 to 0.3 µg/mL); MIC (E. coli ΔfepA; MHBCA): 0.1 µM (≈ 0.075 µg/mL); MIC (E. coli ΔfecA; Escherichia coli, ID-MHBCA): ≤ 0.003 µM; MIC (E. coli ΔfecA; Escherichia coli, MHBCA): ≤ 0.003 µM; MIC (E. coli BW25113; [2]): 0.006 µM (≈ 0.0045 µg/mL); MIC (E. coli BW25113; [3]): 0.012 µM (≈ 0.009 µg/mL); percentage of antibiotic degradation ([1]; 2 h, ID-MHBCA): NDD; percentage of antibiotic degradation ([1]; 2 h, MHBCA): 6%; percentage of antibiotic degradation ([1]; 4 h, ID-MHBCA): 3%; percentage of antibiotic degradation ([1]; 4 h, MHBCA): 15%; percentage of antibiotic degradation ([1]; 6 h, ID-MHBCA): 6%; percentage of antibiotic degradation ([1]; 6 h, MHBCA): 15%; percentage of antibiotic degradation ([1]; 8 h, ID-MHBCA): 14%; percentage of antibiotic degradation ([1]; 8 h, MHBCA): 26%; percentage of antibiotic degradation ([1]; 10 h, ID-MHBCA): 9%; percentage of antibiotic degradation ([1]; 10 h, MHBCA): 22%; percentage of antibiotic degradation ([1]; 24 h, ID-MHBCA): 14%; percentage of antibiotic degradation ([1]; 24 h, MHBCA): 28%

Question: For `O=C(CCC(=O)N(CCCCNC(=O)c1cccc(O)c1O)CCCNC(=O)c1cccc(O)c1O)NCCCCCN(O)C(=O)CCCC(=O)NC(C(=O)NC1C(=O)N2C(C(=O)O)=C(Cl)CSC12)c1ccccc1` (stereo not drawn) [MCEF, mixed ligand bis-catechol-mono-hydroxamate-cefaclor], which MIC (E. coli ΔentE; Escherichia coli, ID-MHBCA) is on record?
Answer: 1.6 µM (≈ 1.73 µg/mL)

Question: What about the MIC (E. coli ΔentE; Escherichia coli, MHBCA) of the same molecule?
Answer: 13 µM (≈ 14.1 µg/mL)

Question: What about the MIC (E. coli ΔtonB; Escherichia coli) of the same molecule?
Answer: 25 µM (≈ 27 µg/mL)

Question: And the MIC (E. coli ΔfepA; Escherichia coli, ID-MHBCA)?
Answer: > 200 µM

Question: What about the MIC (E. coli ΔfepA; Escherichia coli, MHBCA) of the same molecule?
Answer: 13 µM (≈ 14.1 µg/mL)

Question: And the MIC (E. coli ΔfecA; Escherichia coli, ID-MHBCA)?
Answer: > 200 µM

Question: And the MIC (E. coli ΔfecA; Escherichia coli, MHBCA)?
Answer: 13 µM (≈ 14.1 µg/mL)

Question: What about the MIC (E. coli BW25113; BW25113, ID-MHBCA) of the same molecule?
Answer: >200 µM

Question: And the MIC (E. coli BW25113; [2])?
Answer: > 200 µM

Question: And the MIC (E. coli BW25113; [3])?
Answer: 13 µM (≈ 14.1 µg/mL)

Question: What about the “percentage of antibiotic degradation” value ([1]; 2 h, ID-MHBCA) of the same molecule?
Answer: 5%

Question: What about the “percentage of antibiotic degradation” value ([1]; 2 h, MHBCA) of the same molecule?
Answer: 12%

Question: What about the “percentage of antibiotic degradation” value ([1]; 4 h, ID-MHBCA) of the same molecule?
Answer: 18%

Question: What about the “percentage of antibiotic degradation” value ([1]; 4 h, MHBCA) of the same molecule?
Answer: 25%

Question: And the “percentage of antibiotic degradation” value ([1]; 6 h, ID-MHBCA)?
Answer: 22%

Question: And the “percentage of antibiotic degradation” value ([1]; 6 h, MHBCA)?
Answer: 29%

Question: And the “percentage of antibiotic degradation” value ([1]; 8 h, ID-MHBCA)?
Answer: 31%

Question: What about the “percentage of antibiotic degradation” value ([1]; 8 h, MHBCA) of the same molecule?
Answer: 41%

Question: And the “percentage of antibiotic degradation” value ([1]; 10 h, ID-MHBCA)?
Answer: 29%

Question: What about the “percentage of antibiotic degradation” value ([1]; 10 h, MHBCA) of the same molecule?
Answer: 38%

Question: And the “percentage of antibiotic degradation” value ([1]; 24 h, ID-MHBCA)?
Answer: 43%

Question: What about the “percentage of antibiotic degradation” value ([1]; 24 h, MHBCA) of the same molecule?
Answer: 54%

Question: Which MIC (E. coli ΔentE; ID-MHBCA) does the source give for `N[C@@H](C(=O)N[C@@H]1C(=O)N2C(C(=O)O)=C(Cl)CC[C@H]12)c1ccccc1` [LOR, loracarbef, reference compound] here?
Answer: 6.3 µM (≈ 2.2 µg/mL)

Question: And the MIC (E. coli ΔentE; MHBCA)?
Answer: 6.3 µM (≈ 2.2 µg/mL)

Question: What about the MIC (E. coli ΔtonB; ΔtonB, MHBCA) of the same molecule?
Answer: 6.3 µM (≈ 2.2 µg/mL)

Question: And the MIC (E. coli ΔfepA; ID-MHBCA)?
Answer: 13 µM (≈ 4.55 µg/mL)

Question: And the MIC (E. coli ΔfepA; MHBCA)?
Answer: 6.3 µM (≈ 2.2 µg/mL)

Question: And the MIC (E. coli ΔfecA; ID-MHBCA)?
Answer: 6.3 µM (≈ 2.2 µg/mL)

Question: And the MIC (E. coli ΔfecA; MHBCA)?
Answer: 3.1 µM (≈ 1.08 µg/mL)

Question: What about the MIC (E. coli BW25113; BW25113, ID-MHBCA) of the same molecule?
Answer: 6.3 µM (≈ 2.2 µg/mL)

Question: And the MIC (E. coli BW25113; BW25113, MHBCA)?
Answer: 6.3 µM (≈ 2.2 µg/mL)

Question: And the “percentage of antibiotic degradation” value [1]?
Answer: NDD

Question: For `CC1(C)SC2C(NC(=O)C(NC(=O)CN(CCCCNC(=O)c3cccc(O)c3O)C(=O)c3cccc(O)c3O)c3ccccc3)C(=O)N2C1C(=O)O` (stereo not drawn) [BAMP, bis-catechol (azotochelin)-ampicillin], which MIC (E. coli ΔentE; Escherichia coli, ID-MHBCA) is on record?
Answer: 0.05 µM (≈ 0.0375 µg/mL)

Question: What about the MIC (E. coli ΔentE; Escherichia coli, MHBCA) of the same molecule?
Answer: 0.2 µM (≈ 0.15 µg/mL)

Question: And the MIC (E. coli ΔtonB; Escherichia coli)?
Answer: 50 µM (≈ 37.5 µg/mL)

Question: And the MIC (E. coli ΔtonB; ΔtonB, MHBCA)?
Answer: 50^c μM

Question: And the MIC (E. coli ΔfepA; Escherichia coli, ID-MHBCA)?
Answer: 0.024 µM (≈ 0.018 µg/mL)

Question: And the MIC (E. coli ΔfepA; Escherichia coli, MHBCA)?
Answer: 0.1 to 0.4 µM (≈ 0.075 to 0.3 µg/mL)

Question: What about the MIC (E. coli ΔfepA; MHBCA) of the same molecule?
Answer: 0.2 µM (≈ 0.15 µg/mL)

Question: What about the MIC (E. coli ΔfecA; Escherichia coli, ID-MHBCA) of the same molecule?
Answer: 0.006 µM (≈ 0.0045 µg/mL)

Question: What about the MIC (E. coli ΔfecA; Escherichia coli, MHBCA) of the same molecule?
Answer: ≤ 0.003 µM

Question: What about the MIC (E. coli BW25113; [2]) of the same molecule?
Answer: 0.024 µM (≈ 0.018 µg/mL)

Question: And the MIC (E. coli BW25113; [3])?
Answer: 0.05 µM (≈ 0.0375 µg/mL)
